# According to patent US20120122776A1, “DPP-IV INHIBITORS FOR TREATMENT OF DIABETES IN PEDIATRIC PATIENTS” (BOEHRINGER INGELHEIM INTERNATIONAL GMBH, priority 2009, published 2012):
# Assays:
# [1] = Safety (adverse events, hypoglycaemia) in the 12-week add-on to metformin study; assay type: in vivo, human; details: 12 weeks
# Source text: In total, 106 patients (43.1%) experienced adverse events (AEs) with similar incidences across all treatments. Most frequently reported episodes were nasopharyngitis (7.5%), diarrhoea (3.3%), and nausea (3.0%). […] Ten patients (3.7%) experienced serious AEs but none of these events were considered drug-related.
# The addition of BI 1356 to MET in patients with T2DM inadequately controlled on MET alone achieved clinically relevant and statistically significant reductions in HbA1c.
# [2] = 12-week randomized, double-blind add-on to metformin study in inadequately controlled adult type 2 diabetic patients: HbA1c and FPG; details: for placebo corrected mean reduction in HbA1c: 12 weeks
# Description: Effects were compared to add-on of placebo (PBO) or of open label glimepiride (GLIM; 1 to 3 mg qd) in a 12-week randomized, double-blind study.
# The primary endpoint was change from baseline in HbA1c, adjusted for prior antidiabetic medication.
# [3] = Plasma concentration after single oral administration in the thorough QT study; assay type: in vivo, human; details: for maximum gMean concentration after single oral administration: healthy subjects
# Description: Forty-four subjects were enrolled, 26 (59.1%) of whom were male. The mean age was 36.4 years (range 22 to 48 years). The maximum gMean concentration after single oral administration was 7.05 nM (28.5% gCV) for 5 mg BI 1356, and 267 nM (66.6% gCV) for 100 mg BI 1356.
# [4] = 2 h postprandial blood glucose excursions, multiple oral dose study in adult patients with type 2 diabetes; assay type: in vivo, human; details: already on Day 1; in doses 2.5 mg
# Source text: […]. […] […].
# [5] = Pharmacokinetics of BI 1356, multiple oral doses once daily for 12 days in adult patients with type 2 diabetes; details: for fe0-24: fraction excreted in urine; for AUCT,ss / T1/2,ss / feT,ss / tmax,ss* / Cmax: steady state (Day 12); for tmax,ss*: median; for Cmax: read-out: Cmax,ss
# [6] = Safety and tolerability in people with type 2 diabetes
# [7] = clinical; details: human; for Cmax / Tmax / AUC(0-t): plasma; for CL renal: urine
# [8] = gMean, 1 mg once daily oral for 12 days
# [9] = gMean, 2.5 mg once daily oral for 12 days
# [10] = gMean, 5 mg once daily oral for 12 days
# [11] = gMean, 10 mg once daily oral for 12 days
structure (smiles),measurement,setting,value
"CCC1=C(C)CN(C(=O)NCCc2ccc(S(=O)(=O)NC(=O)N[C@H]3CC[C@H](C)CC3)cc2)C1=O [GLIM, glimepiride, reference compound]",drug-related hypoglycaemia,[1]; add-on to metformin,3 patients
same,mean PBO corrected reduction in HbA1c at Week 12,"[2]; open label, 1 to 3 mg qd add-on to metformin, n=64",−0.90%
CC#CCn1c(N2CCC[C@@H](N)C2)nc2c1c(=O)n(Cc1nc(C)c3ccccc3n1)c(=O)n2C [BI 1356],maximum gMean concentration after single oral administration,[3]; 5 mg single oral dose,7.05 nM
same,maximum gMean concentration after single oral administration,[3]; 100 mg single oral dose,267 nM
same,maximum plasma concentration of supratherapeutic dose (100 mg) relative to therapeutic dose of 5 mg,[3]; single dose,about 38 fold
same,decrease in 2 h postprandial blood glucose excursions,[4],> 80%
same,"mean accumulation ratio RA,AUC","[5]; doses above 1 mg, once daily for 12 days",≤ 1.4
same,AUC0-24,[5]; [8],0.0402 µM·h
same,"Accumulation t1/2,",[5]; [8],23.9 h
same,"Accumulation t1/2,",[5]; [9],12.5 h
same,"Accumulation t1/2,",[5]; [10],11.4 h
same,"Accumulation t1/2,",[5]; [11],8.59 h
same,fe0-24,[5]; [9],0.139%
same,fe0-24,[5]; [10],0.453%
same,fe0-24,[5]; [11],0.919%
same,"AUCT,ss","[5]; gMean, 1 mg once daily oral",0.0817 µM·h
same,"T1/2,ss","[5]; gMean, 1 mg once daily oral",121 h
same,"feT,ss","[5]; gMean, 1 mg once daily oral",3.34%
same,"AUCT,ss","[5]; gMean, 2.5 mg once daily oral",0.117 µM·h
same,"T1/2,ss","[5]; gMean, 2.5 mg once daily oral",113 h
same,"feT,ss","[5]; gMean, 2.5 mg once daily oral",3.06%
same,"AUCT,ss","[5]; gMean, 5 mg once daily oral",0.158 µM·h
same,"T1/2,ss","[5]; gMean, 5 mg once daily oral",131 h
same,"feT,ss","[5]; gMean, 5 mg once daily oral",6.27%
same,"AUCT,ss","[5]; gMean, 10 mg once daily oral",0.19 µM·h
same,"T1/2,ss","[5]; gMean, 10 mg once daily oral",130 h
same,"feT,ss","[5]; gMean, 10 mg once daily oral",3.22%
same,"tmax,ss*",[5]; 1 mg once daily oral,1.48 h
same,"tmax,ss*",[5]; 2.5 mg once daily oral,1.42 h
same,"tmax,ss*",[5]; 5 mg once daily oral,1.53 h
same,"tmax,ss*",[5]; 10 mg once daily oral,1.34 h
same,Cmax,"[5]; gMean, 1 mg once daily oral",4.53 nM
same,Cmax,"[5]; gMean, 2.5 mg once daily oral",6.58 nM
same,Cmax,"[5]; gMean, 5 mg once daily oral",11.1 nM
same,Cmax,"[5]; gMean, 10 mg once daily oral",13.6 nM
same,safety and tolerability,[6],placebo-like safety and tolerability
same,drug-related hypoglycaemia,[1]; add-on to metformin,did not occur
same,incidence of AEs versus PBO,[1]; add-on to metformin,comparable
same,tolerability of combination treatment with MET,"[1]; BI 1356 1, 5, and 10 mg and MET",well tolerated
same,excretion form and pathway,in vivo,primarily excreted unchanged via the bile
same,excretion via the kidney,therapeutic oral dose levels,< 7 % of the administered oral dose
same,main excretion organ,therapeutic oral dose levels,mainly excreted via the liver
same,Cmax,"[7]; po, 1 mg",3.13 nM
same,Tmax,"[7]; po, 1 mg",1.5 h
same,AUC(0-t),"[7]; po, 2.5 mg",0.0853 µM·h
same,Cmax,"[7]; po, 2.5 mg",5.25 nM
same,Tmax,"[7]; po, 2.5 mg",2 h
same,AUC(0-t),"[7]; po, 5 mg",0.118 µM·h
same,Cmax,"[7]; po, 5 mg",8.32 nM
same,Tmax,"[7]; po, 5 mg",1.75 h
same,AUC(0-t),"[7]; po, 10 mg",0.161 µM·h
same,Cmax,"[7]; po, 10 mg",9.69 nM
same,Tmax,"[7]; po, 10 mg",2 h
same,CL renal,"[7]; oral, 5 mg",~70 mL/min
same,CL renal,[7]; po,14 to 70 mL/min
same,reduction in FPG from baseline to Week 12,[2]; 1 mg qd add-on to metformin,-19 mg/dL
same,placebo corrected mean reduction in HbA1c,"[2]; 1 mg qd add-on to metformin, n=65",−0.39%
same,reduction in FPG from baseline to Week 12,[2]; 5 mg qd add-on to metformin,-35 mg/dL
same,placebo corrected mean reduction in HbA1c,"[2]; 5 mg qd add-on to metformin, n=66",−0.75%
same,reduction in FPG from baseline to Week 12,[2]; 10 mg qd add-on to metformin,-30 mg/dL
same,placebo corrected mean reduction in HbA1c,"[2]; 10 mg qd add-on to metformin, n=66",−0.73%
